{"source": "patent US20230270804A1", "about": "“ANTI-HYPERCHOLESTEROLEMIA COMPOSITION AND A METHOD OF MANUFACTURING THE SAME” (NBI BIOSCIENCES PRIVATE LIMITED, priority 2020, published 2023)", "key": {"[1]": {"system": "heart, spleen, lungs, kidney, liver", "experiment": "Prophylactic study: histopathology (heart, spleen, lungs, kidney, liver)", "assay_type": "in vivo, Wistar strain albino rats", "conditions": "HFD", "description": "FIG. 1 depicts the histopathological images of heart.\nFIG. 2 depicts the histopathological images of Spleen. […] However, this indicates the safety of the composition of the present invention on spleen.\nFIG. 3 depicts the histopathological images of Lungs. […] However, this indicates the safety of the composition of the present invention on lungs.\nFIG. 4 depicts the histopathological images of kidney. […] However, this indicates the safety of the composition of the present invention on kidney.\nFIG. 5 depicts the histopathological images of liver. […] It also indicates the safety of the composition of the present invention on liver. The composition of the present invention was also found useful to prevent the deposition of the fat bodies."}, "[2]": {"system": "hypercholesterolemia induced wistar rat's models", "experiment": "Prophylactic study: lipid profile (TC, TG, HDL-C, LDL-C, VLDL)", "assay_type": "in vivo, Wistar strain albino rats", "conditions": "for HDL-C / LDL-C / TC / TG / VLDL: HFD+normal diet", "protocol": "Wistar strain albino rats of body weight ranging from 190-225 g were selected for the present study. The temperature and humidity were kept at optimum (22+2° C.; 40-70% and animals were exposed to natural chronological day night cycles. The experiments were carried out in conformity with the Institutional Animal Ethics Committee.\nThe 6 groups were as follows: • 1. Normal Control • 2.\n1.5-2 ml blood sample was taken from retino-orbital chamber in vials for biochemical estimations at every 15 days. Investigations performed included detailed Total Cholesterol—TC (mg/dl), Triglyceride—TG (mg/dl), High Density Lipoprotein—HDL-C (mg/dl), Low Density Lipoprotein—LDL-C (mg/dl), Very Low-Density Lipoprotein—VLDL (mg/dl), WBC (10^3/u1), RBC (10^6/u1), Hb (g/dl), PCV (%), Reticulocyte (%), Platelet count 10^5/mm^3, Clotting time (Sec), Neutrophils, Lymphocyte, Monocyte and Eosinophil. The estimations were done with Ecoline kits from Erba Mannheim, ERBA diagnostics Mannheml, Germany using Semi Autoanalyzer RX50 of MicroLabs Instruments and COUNCELL21 of Tulip Diagnostics Pvt. Ltd. Lipid peroxidation (Plasma & Liver), HMG Co-Reductase, Creatine phosphokinase (CPK), Lactate dehydrogenase (LDH), SGOT and SGPT were estimated at the end of both the studies using the kits."}, "[3]": {"conditions": "rat, in vivo", "protocol": "The prophylactic study which lasted 90 days used 6 rats per group. […] The 6 groups were as follows: • 1. Normal Control • 2. High Fat Diet (HFD) 1 ml 1/d+Normal Diet • 3. High Fat Diet (HFD)+Normal Diet+the composition of the present invention (OD) • 4, High Fat Diet (HFD)+Normal Diet+the composition of the present invention (BD) • 5. […] The body weights were recorded to the nearest gram (g) with proper tare to 0.0000 with the subject at steady state on the weighing machine. The same weighing machine was used for all the subjects. The machine was tested with a known set of weights for any error.\nThe long-term rise in the electrolyte such as Na and are associated with blood pressure disorders impacting the heart."}}, "note": "Entries after “also recorded” stand apart in the source; their conditions may differ."}
{"smiles": "CC(C)c1c(C(=O)Nc2ccccc2)c(-c2ccccc2)c(-c2ccc(F)cc2)n1CC[C@@H](O)C[C@@H](O)CC(=O)O", "note": "[Statin, Atorvastatin]", "values": [{"measurement": "histopathology of heart", "setting": "[1]", "value": "relaxation in the cardiac muscles as the fat content was decreased"}, {"measurement": "histopathology of liver (fatty liver grade)", "setting": "[1]; composition at OD and BD dose levels", "value": "dilation of hepatic portal triad was more evident; also recorded: from grade 2 to grade 1"}, {"measurement": "HDL-C", "setting": "[2]; day 0", "value": "34.60 ± 1.50", "unit": "mg/dL"}, {"measurement": "LDL-C", "setting": "[2]; day 0", "value": "47.10 ± 1.25", "unit": "mg/dL"}, {"measurement": "TC", "setting": "[2]; day 0", "value": "81.95 ± 1.35", "unit": "mg/dL"}, {"measurement": "TG", "setting": "[2]; day 0", "value": "16.75 ± 1.10", "unit": "mg/dL"}, {"measurement": "VLDL", "setting": "[2]; day 0", "value": "2.48 ± 0.15", "unit": "mg/dL"}, {"measurement": "HDL-C", "setting": "[2]; day 15", "value": "31.56 ± 1.26", "unit": "mg/dL"}, {"measurement": "LDL-C", "setting": "[2]; day 15", "value": "48.68 ± 0.29", "unit": "mg/dL"}, {"measurement": "TC", "setting": "[2]; day 15", "value": "85.24 ± 1.55", "unit": "mg/dL"}, {"measurement": "VLDL", "setting": "[2]; day 15", "value": "2.86 ± 0.35", "unit": "mg/dL"}, {"measurement": "HDL-C", "setting": "[2]; day 30", "value": "35.66 ± 2.08", "unit": "mg/dL"}, {"measurement": "LDL-C", "setting": "[2]; day 30", "value": "56.60 ± 4.50", "unit": "mg/dL"}, {"measurement": "TC", "setting": "[2]; day 30", "value": "85.66 ± 4.04", "unit": "mg/dL"}, {"measurement": "TG", "setting": "[2]; day 30", "value": "22.66 ± 3.10", "unit": "mg/dL"}, {"measurement": "VLDL", "setting": "[2]; day 30", "value": "2.96 ± 0.02", "unit": "mg/dL"}, {"measurement": "HDL-C", "setting": "[2]; day 45", "value": "38.33 ± 5.85", "unit": "mg/dL"}, {"measurement": "LDL-C", "setting": "[2]; day 45", "value": "57 ± 4.0", "unit": "mg/dL"}, {"measurement": "TC", "setting": "[2]; day 45", "value": "87.5 ± 5.04", "unit": "mg/dL"}, {"measurement": "TG", "setting": "[2]; day 45", "value": "24.86 ± 4.20", "unit": "mg/dL"}, {"measurement": "VLDL", "setting": "[2]; day 45", "value": "3.03 ± 0.19", "unit": "mg/dL"}, {"measurement": "HDL-C", "setting": "[2]; day 60", "value": "39.60 ± 5.57", "unit": "mg/dL"}, {"measurement": "LDL-C", "setting": "[2]; day 60", "value": "57.23 ± 4.43", "unit": "mg/dL"}, {"measurement": "TC", "setting": "[2]; day 60", "value": "88.5 ± 4.44", "unit": "mg/dL"}, {"measurement": "TG", "setting": "[2]; day 60", "value": "24.4 ± 4.61", "unit": "mg/dL"}, {"measurement": "VLDL", "setting": "[2]; day 60", "value": "3.0 ± 0.13", "unit": "mg/dL"}, {"measurement": "HDL-C", "setting": "[2]; day 75", "value": "33.53 ± 1.92", "unit": "mg/dL"}, {"measurement": "LDL-C", "setting": "[2]; day 75", "value": "55.27 ± 4.39", "unit": "mg/dL"}, {"measurement": "TC", "setting": "[2]; day 75", "value": "90.95 ± 2.05", "unit": "mg/dL"}, {"measurement": "TG", "setting": "[2]; day 75", "value": "22.67 ± 4.16", "unit": "mg/dL"}, {"measurement": "VLDL", "setting": "[2]; day 75", "value": "2.98 ± 0.84", "unit": "mg/dL"}, {"measurement": "HDL-C", "setting": "[2]; day 90", "value": "34.26 ± 1.26", "unit": "mg/dL"}, {"measurement": "LDL-C", "setting": "[2]; day 90", "value": "52.83 ± 1.76", "unit": "mg/dL"}, {"measurement": "TC", "setting": "[2]; day 90", "value": "90.22 ± 2.10", "unit": "mg/dL"}, {"measurement": "TG", "setting": "[2]; day 90", "value": "21.93 ± 3.90", "unit": "mg/dL"}, {"measurement": "VLDL", "setting": "[2]; day 90", "value": "3.12 ± 0.79", "unit": "mg/dL"}, {"measurement": "increase in TC", "setting": "[2]; prophylactic study, after HFD diet treatment", "value": 10, "unit": "%"}, {"measurement": "Sodium and potassium level", "setting": "[3]", "value": "enhanced"}]}
